Test results as given in patent US11173127B2, “Potato protein nanoparticles” (priority 2013, dated 2021).
Entries after “also recorded” stand apart in the source; their conditions may differ. Each block holds one compound with its values, some of them ahead of it.

Experiments:
Assay type in all cases: physicochemical
[1] = Effect of potato protein on solubilization and transparency (visual); conditions: for appearance / turbidity of solution: 25 mM phosphate buffer pH 2.5, without potato protein
Experimental: First, the effect of potato protein on solubilization and transparency of vitamin D (VD) was assessed. Two aqueous buffer solutions (25 mM phosphate buffer, pH 2.5) containing the same concentration of VD (0.1 mg/ml) were used. Only one vial (left vial of FIG. 1a) also included 1.5 mg/ml potato protein. It is clearly seen that due to the presence of the potato protein, the solution containing VD is transparent, while the one devoid of potato protein is turbid.
Second, the effect of potato protein on solubilization and transparency of omega 3 was also assessed. Specifically, two aqueous buffer solutions (25 mM phosphate buffer, pH 2.5) contained the same concentration of 0.5 ul/ml omega 3 (ethyl ester DHA) colored with Nile red, which is only pink in a hydrophobic environment. One vial (left vial of FIG. 1b) also contained 1.5 mg/ml potato protein.
Thus, the potato protein nanoparticle solubilized the hydrophobic ingredient in a uniform, transparent, manner.

[2] = Dynamic light scattering particle size distribution; conditions: VD without potato protein, 10-50 ug/ml VD, phosphate buffer 25 mM pH 2.5, bimodal distribution
Experimental: Dynamic light scattering (DLS) was used to evaluate size distribution of the potato protein-VD complexes.
The particle size of VD without potato protein was measured with different concentration of VD—10, 25, 35 and 50 ug/ml VD in a phosphate buffer (25 mM, pH 2.5). In all concentrations a bimodal distribution was obtained, with diameter larger than 1500 nm.
The size distributions of the VD—potato protein nano-particles were also measured at several concentrations of VD—10, 25, 35 and 50 μg/ml VD. The size distributions (FIG. 3) consisted of two fractions. The first fraction (84% by volume) comprised the small nano-particles of about 15 nm diameter, while the second fraction comprised nano-particles whose average diameter was around 80 nm.

[3] = VD retention during pasteurization at 72° C. and pH 2.5 (RP-HPLC); conditions: pH 2.5, at least 60 seconds, with 1.5 mg/ml potato protein vs without, VD 0.1 mg/ml
Experimental: The percentage of VD retention within the composition was assessed during pasteurization at 72° C. and pH 2.5 for up to 60 seconds, in the presence and absence of 1.5 mg/ml potato protein. VD concentration at time zero was 0.1 mg/ml. The measurements were done using RP-HPLC. The samples were kept in the dark and the vials' head spaces were filled with argon to prevent oxidation until the analysis.

[4] = VD retention at pH 2.5 and 25° C. (RP-HPLC); conditions: pH 2.5, 25° C., with 1.5 mg/ml potato protein vs without; VD 0.1 mg/ml
Experimental: The percentage of VD retention within the composition at pH 2.5, and 25° C. was also assessed, in the presence and absence of 1.5 mg/ml potato protein. VD concentration at time zero was 0.1 mg/ml. […] The measurements were done using RP-HPLC.

[5] = VD3 degradation under industrial pasteurization and hot-bottling conditions (88° C., 1 min); conditions: cooled 30 min to 30-35° C., pH 2.5, 100 μg/ml VD3, PP 1 mg/ml where present
Experimental: VD3 in phosphate buffer, and PP-VD3 nanoparticles were prepared at 1 mg/ml potato protein (PP) and 100 μg/ml VD3 at pH 2.5.
Samples (without a cap) were heated in a water bath for 1 min at 88° C. Following heat treatment, samples were capped and maintained at room temperature for 30 minutes until their temperature decreased to 30-35° C. Controls of VD3, PP and PP-VD3 nanoparticles, at pH 2.5, were extracted immediately without any heat treatment. The other samples were extracted at room temp after the above heat treatment.
VD3 was extracted and quantified using a protocol based on Haham, et al. (Haham, M., et al., Stability and bioavailability of vitamin D nanoencapsulated in casein micelles. Food & Function, 2012). The protocol, used on both aqueous solutions (with and without PP), was as follows: 1 ml of VD3-containing sample was put into a glass test tube. 3 ml of a 2:1 chloroform:methanol mixture was then added, and the tubes were vortexed for ˜20 seconds. […]
Following extraction, 1.5 ml of RP-HPLC mobile phase (methanol:acetonitrile:water 49.5:49.5:1, by volume) were added to the drying vial, given 15 minutes to equilibrate after vortexing, and then transferred to a 1.5 ml glass HPLC vial. […] In the mobile phase, VD3 has a local UV absorption maximum at 267 nm, and so the 267 nm chromatogram was used for VD3 quantification.

[6] = Simulated shelf life test at 23° C. and pH 2.5, exposed to light; conditions: pH 2.5, light
Experimental: PP-VD3 nanoparticles and VD3 suspensions were prepared in glass test tubes at pH 2.5, pasteurized for 1 min at 88° C. in open test tubes, and then capped, cooled and maintained at room temperature (23° C.) exposed to light, and followed with time. Samples for all shelf life tests were prepared without any preservative.
Samples of 1 ml containing 100 μg/ml VD3 in buffer and 1 mg/ml PP were prepared. The samples were individually prepared in order to perform total volume extractions, minimizing transfer/precipitation losses. Three tubes of each type were quantified immediately, to serve as control. All the remaining tubes were then pasteurized. Three tubes of each type were quantified immediately, to serve as reference. The other tubes were stored at the conditions described above. At each time point, three tubes of each type were taken from storage and their VD3 content was quantified. In all experiments, the tubes were stored covered with their lids to prevent evaporation.
Further tests that show the great advantage of the present invention in conferring exceptional stability to active ingredient is provided in FIG. 8. […] Thus, the shelf life test examined the VD3 stability at low pH (2.5) and exposure to light, during time.

SMILES: C=C1CC[C@H](O)C/C1=C/C=C1\CCC[C@]2(C)[C@@H]([C@H](C)CCCC(C)C)CC[C@@H]12 [VD, Vitamin D3]
appearance / transparency of solution ([1]; 25 mM phosphate buffer pH 2.5, with 1.5 mg/ml potato protein): transparent
appearance / turbidity of solution [1]: turbid; also recorded: much more turbid
particle diameter (DLS) [2]: > 1500 nm
protection against heat induced degradation (VD retention) [3]: significant protection
protection of VD (VD retention) [4]: significant protection
VD degraded / lost by heat treatment [5]: 55%
VD degraded / lost ([6]; after one week): almost all
post-pasteurization VD3 lost ([6]; within 24 hours): 52%

appearance / turbidity of solution [1]: much more turbid
SMILES: CC/C=C\C/C=C\C/C=C\C/C=C\C/C=C\C/C=C\CCC(=O)OCC [omega 3, omega 3 DHA (ethyl ester)]
